Assay [1] deals with T1, human B1R (bradykinin receptor 1) (Homo sapiens, UniProt P46663).
T1 construct: expressed in transfected cells; host or cells: CHO K1 cells
T1 sequence (P46663 1-353): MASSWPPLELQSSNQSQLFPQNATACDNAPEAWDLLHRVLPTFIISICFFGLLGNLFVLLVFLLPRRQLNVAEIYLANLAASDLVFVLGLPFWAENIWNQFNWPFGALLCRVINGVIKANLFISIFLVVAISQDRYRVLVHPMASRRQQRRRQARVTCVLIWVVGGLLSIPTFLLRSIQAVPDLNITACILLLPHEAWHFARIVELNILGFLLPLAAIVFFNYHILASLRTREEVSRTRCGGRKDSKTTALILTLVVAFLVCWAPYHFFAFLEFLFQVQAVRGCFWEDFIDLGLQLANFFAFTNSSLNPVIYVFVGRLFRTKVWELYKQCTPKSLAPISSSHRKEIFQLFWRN
In words: FLIPR Ca2+ assay (Fluo-4) on CHO K1 cells stably transfected with the human B1R gene (hB1R cells): % inhibition at 10 μM / IC50, agonist Lys-Des-Arg9-bradykinin. Format: cell-based. Particulars: CHO-K1, human B1R. Summed up: (§1)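 Stable CHO K1 lines, Fluo-4 dye, probenecid-containing buffer. Cpd 10 μM or dose range, 10–20 min, then EC80 agonist (h: Lys-Des-Arg9-BK; r: Des-Arg9-BK). Readout peak FC; % inhibition vs max; IC50 from n=2–3, N≥2.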

Assay [2] concerns the target T2, rat B1R (bradykinin receptor 1) (Rattus norvegicus, UniProt P97583).
T2 construct: expressed in transfected cells; host or cells: CHO K1 cells
T2 sequence (P97583 1-337): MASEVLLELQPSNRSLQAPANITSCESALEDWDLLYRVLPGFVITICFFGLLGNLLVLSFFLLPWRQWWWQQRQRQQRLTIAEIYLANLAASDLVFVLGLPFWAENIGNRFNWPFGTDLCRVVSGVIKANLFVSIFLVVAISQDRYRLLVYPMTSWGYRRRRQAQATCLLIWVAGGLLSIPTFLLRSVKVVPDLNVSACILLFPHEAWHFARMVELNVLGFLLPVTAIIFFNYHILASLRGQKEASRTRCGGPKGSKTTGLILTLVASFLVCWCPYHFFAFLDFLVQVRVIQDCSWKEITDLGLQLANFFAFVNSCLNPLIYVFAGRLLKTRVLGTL
Briefly: FLIPR Ca2+ assay (Fluo-4) on CHO K1 cells stably transfected with the B1R gene of the rat (rB1R cells): % inhibition at 10 μM / IC50, agonist Des-Arg9-bradykinin. Format: cell-based. To be noted: CHO-K1, rat B1R. Summed up:
as §1

Inhibition data for 21 compounds are collected here from patent publication US8455475B2 (Gruenenthal GmbH, priority 2009, dated 2013).

What is called inhibition is the drop in the measured response relative to a control, in per cent.

For the compound `O=C(c1ccc2c(c1)C(NS(=O)(=O)c1ccccc1Cl)CC2)N1CCC2(CC1)CCN(c1ccncc1)CC2` (stereo not drawn) [Ind_CC-010, 2-chloro-N-[6-(9-pyridin-4-yl-3,9-diazaspiro[5.5]undecane-3-carbonyl)-2,3-dihydro-1H-inden-1-yl]-benzenesulfonic acid amide], the inhibition at 10 µM in assay [1] amounted to 97%; in assay [2], 100%.

In the case of `O=C(N[C@@H]1CCOc2cc(F)c(C(=O)N3CCC4(CCN(c5ccncc5)CC4)C3)cc21)c1ccccc1Cl` [Example H-65, 2-Chloro-N-[(4R)-7-fluoro-6-(8-pyridin-4-yl-3,8-diazaspiro[4.5]decane-3-carbonyl)-3,4-dihydro-2H-chromen-4-yl]-benzamide], the inhibition at 10 µM in assay [1] turned out to be 100%; in assay [2], 105%.

On to `O=C(Cc1ccccc1Cl)NC1CCc2ccc(C(=O)N3CCC4(CC3)CCN(c3ccncc3)CC4)cc21` (stereo not drawn) [Ind_CC-007, 2-(2-chlorophenyl)-N-[6-(9-pyridin-4-yl-3,9-diazaspiro[5.5]undecane-3-carbonyl)-2,3-dihydro-1H-inden-1-yl]-acetamide], for which the inhibition at 10 µM in assay [1] was 99%; in assay [2], 102%.

`COc1cc(C)c(S(=O)(=O)NC2CCc3ccc(C(=O)N4CCC5(CC4)CCN(c4ccncc4)CC5)cc32)c(C)c1` (stereo not drawn) [Ind_CC-001, 4-methoxy-2,6-dimethyl-N-[6-(9-pyridin-4-yl-3,9-diazaspiro[5.5]undecane-3-carbonyl)-2,3-dihydro-1H-inden-1-yl]-benzenesulfonic acid amide]: the results for the inhibition at 10 µM in assay [1] and in assay [2] were 99% and 98%, respectively.

On to `O=C(NC1CCc2ccc(C(=O)N3CCC4(CCC(O)(c5ccncc5)CC4)C3)cc21)c1ccccc1Cl` (stereo not drawn) [Example H-128, 2-Chloro-N-[6-(8-hydroxy-8-pyridin-4-yl-3-azaspiro[4.5]decane-3-carbonyl)-2,3-dihydro-1H-inden-1-yl]-benzamide], for which the inhibition at 10 µM turned out to be 38% in assay [1] and 36% in assay [2].

Regarding `CN(C(=O)C(c1ccccc1)c1ccccc1Cl)C1CCc2ccc(C(=O)N3CCC4(CC3)CCN(c3ccncc3)CC4)cc21` (stereo not drawn) [Ind_CC-021, 2-(2-chlorophenyl)-N-methyl-2-phenyl-N-[6-(9-pyridin-4-yl-3,9-diazaspiro[5.5]undecane-3-carbonyl)-2,3-dihydro-1H-inden-1-yl]-acetamide], the inhibition at 10 µM stood at 94% in assay [1] and 96% in assay [2].

Consider `O=C(c1ccc2c(c1)[C@H](NS(=O)(=O)c1c(Cl)cccc1C(F)(F)F)CC2)N1CCC2(CCN(c3ccncc3)CC2)C1` [Example H-149, 2-Chloro-N-[(1R)-6-(8-pyridin-4-yl-3,8-diazaspiro[4.5]decane-3-carbonyl)-2,3-dihydro-1H-inden-1-yl]-6-(trifluoromethyl)-benzenesulfonic acid amide], for which the inhibition at 10 µM in assay [1] turned out to be 100%; in assay [2], 103%.

Consider `Cc1cccc(Cl)c1S(=O)(=O)NC1CC(C)(C)c2ccc(C(=O)N3CCC4(CC3)CCN(c3ccncc3)CC4)cc21` (stereo not drawn) [IND_CC-259, 2-Chloro-N-[3,3-dimethyl-6-(3-pyridin-4-yl-3,9-diazaspiro[5.5]undecane-9-carbonyl)-1,2-dihydro-inden-1-yl]-6-methyl-benzenesulfonic acid amide], for which the inhibition at 10 µM in assay [1] was 99%; in assay [2], 100%.

Take `CC1(C)Cc2ccc(C(=O)N3CCC4(CC3)CCN(c3ccncc3)CC4)cc2C1NC(=O)c1cc(F)c(F)cc1Cl` (stereo not drawn) [IND_CC-231, 2-Chloro-N-[2,2-dimethyl-6-(9-pyridin-4-yl-3,9-diazaspiro[5.5]undecane-3-carbonyl)-1,3-dihydro-inden-1-yl]-4,5-difluoro-benzamide]: the inhibition at 10 µM amounted to 100% in assay [1] and 102% in assay [2].

As for `O=C(c1ccc2c(c1)C(N(C(=O)c1ccccc1Cl)C1CC1)CC2)N1CCC2(CCN(c3ccncc3)CC2)C1` (stereo not drawn) [Ind_CC-118, 2-chloro-N-cyclopropyl-N-[6-(8-pyridin-4-yl-2,8-diazaspiro[4.5]decane-2-carbonyl)-2,3-dihydro-1H-inden-1-yl]-benzamide], the values for the inhibition at 10 µM in assay [1] and in assay [2] were 100% and 103%, respectively.

For the compound `O=C(N[C@@H]1CCc2ccc(C(=O)N3CCC4(CCN(c5ccncc5)CC4)C3)cc21)c1c(Cl)cccc1Cl` [Example H-99, 2,6-Dichloro-N-[(1R)-6-(8-pyridin-4-yl-3,8-diazaspiro[4.5]decane-3-carbonyl)-2,3-dihydro-1H-inden-1-yl]-benzamide], the values for the inhibition at 10 µM in assay [1] and in assay [2] were 100% and 105%, respectively.

Take `COc1ccc(C(=O)NC2CCc3ccc(C(=O)N4CCC5(CCN(c6ccncc6)CC5)C4)cc32)c(Cl)c1` (stereo not drawn) [IND_CC-247, 2-Chloro-4-methoxy-N-[6-(8-pyridin-4-yl-2,8-diazaspiro[4.5]decane-2-carbonyl)-2,3-dihydro-1H-inden-1-yl]-benzamide]: the inhibition at 10 µM in assay [1] turned out to be 99%; in assay [2] it was 102%.

As for `CC1(C)Cc2ccc(C(=O)N3CCC4(CC3)CCN(c3ccncc3)CC4)cc2C1NC(=O)c1ccccc1Cl` (stereo not drawn) [IND_CC-291, 2-Chloro-N-[2,2-dimethyl-6-(9-pyridin-4-yl-3,9-diazaspiro[5.5]undecane-3-carbonyl)-1,3-dihydro-inden-1-yl]-benzamide], the inhibition at 10 µM amounted to 98% in assay [1] and 104% in assay [2].

For the compound `COc1cc(C)c(S(=O)(=O)N[C@H]2CCCc3ccc(C(=O)N4CCC5(CC4)CCN(c4ccncc4)CC5)cc32)c(C)c1` [Example H-19, 4-methoxy-2,6-dimethyl-N-[(1S)-7-(9-pyridin-4-yl-3,9-diazaspiro[5.5]undecane-3-carbonyl)-1,2,3,4-tetrahydro-naphthalen-1-yl]-benzenesulfonic acid amide], the inhibition at 10 µM in assay [1] was found to be 99%; in assay [2], 102%.

Take `CN(C(=O)c1ccccn1)C1CCc2ccc(C(=O)N3CCC4(CC3)CCN(c3ccncc3)CC4)cc21` (stereo not drawn) [Ind_CC-014, N-methyl-N-[6-(9-pyridin-4-yl-3,9-diazaspiro[5.5]undecane-3-carbonyl)-2,3-dihydro-1H-inden-1-yl]-pyridine-2-carboxylic acid amide]: the inhibition at 10 µM in assay [1] came to 93%; in assay [2], 101%.

Regarding `CC1(C)CC(NC(=O)c2ccccn2)c2cc(C(=O)N3CCC4(CC3)CCN(c3ccncc3)CC4)ccc21` (stereo not drawn) [Ind_CC-052, N-[3,3-dimethyl-6-(9-pyridin-4-yl-3,9-diazaspiro[5.5]undecane-3-carbonyl)-1,2-dihydro-inden-1-yl]-pyridine-2-carboxylic acid amide], the inhibition at 10 µM was found to be 62% in assay [1] and 81% in assay [2].

Take `COc1ccc(C(=O)NC2CC(C)(C)c3ccc(C(=O)N4CCC5(CC4)CCN(c4ccncc4)CC5)cc32)c(F)c1` (stereo not drawn) [IND_CC-312, N-[3,3-Dimethyl-6-(3-pyridin-4-yl-3,9-diazaspiro[5.5]undecane-9-carbonyl)-1,2-dihydro-inden-1-yl]-2-fluoro-4-methoxy-benzamide]: the results for the inhibition at 10 µM in assay [1] and in assay [2] were 44% and 102%, respectively.

Take `CC(C)(C(=O)N[C@@H]1CCc2ccc(C(=O)N3CCC4(CCN(c5ccncc5)CC4)C3)cc21)c1ccccc1Cl` [Example H-146, 2-(2-Chlorophenyl)-2-methyl-N-[(1R)-6-(8-pyridin-4-yl-3,8-diazaspiro[4.5]decane-3-carbonyl)-2,3-dihydro-1H-inden-1-yl]-propionamide]: the values for the inhibition at 10 µM in assay [1] and in assay [2] were 100% and 102%, respectively.

`O=C(c1ccc2c(c1)C(NS(=O)(=O)Cc1ccccc1C(F)(F)F)CC2)N1CCC2(CC1)CCN(c1ccncc1)C2` (stereo not drawn) [IND_CC-237, N-[6-(2-Pyridin-4-yl-2,8-diazaspiro[4.5]decane-8-carbonyl)-2,3-dihydro-1H-inden-1-yl]-1-[2-(trifluoromethyl)-phenyl]-methanesulfonic acid amide]: the results for the inhibition at 10 µM in assay [1] and in assay [2] were 100% and 98%, respectively.

Turning to `CC1(C)Cc2ccc(C(=O)N3CCC4(CC3)CCN(c3ccncc3)CC4)cc2C1NC(=O)c1cc(C(F)(F)F)ccc1Cl` (stereo not drawn) [IND_CC-219, 2-Chloro-N-[2,2-dimethyl-6-(9-pyridin-4-yl-3,9-diazaspiro[5.5]undecane-3-carbonyl)-1,3-dihydro-inden-1-yl]-5-(trifluoromethyl)-benzamide], the inhibition at 10 µM in assay [1] was found to be 53%; in assay [2], 104%.

For `O=C(c1ccc2c(c1)[C@H](NS(=O)(=O)c1ccccc1F)CC2)N1CCC2(CCN(c3ccncc3)CC2)C1` [Example H-116, 2-Fluoro-N-[(1R)-6-(8-pyridin-4-yl-3,8-diazaspiro[4.5]decane-3-carbonyl)-2,3-dihydro-1H-inden-1-yl]-benzenesulfonic acid amide], the inhibition at 10 µM in assay [1] worked out at 100%; in assay [2] it was 101%.
